The record followed here is patent publication US9340590B2 (priority 2011, dated 2016).

Experiment [1] concerns the target hNav1.5 (Homo sapiens, UniProt Q14524). The experiment can be described thus: cell-based. As to conditions: IonWorks Quattro, read-out: IWQ Use Nav1.5.
The target in experiment [2] is hNav1.3 (Homo sapiens, UniProt Q9NY46). The experiment can be described thus: cell-based. The conditions noted are these: IonWorks Quattro, read-out: IWQ Use Nav1.3. A general note: Patch clamp records ionic current or voltage across a cell membrane.
Sequence of hNav1.3 (Q9NY46 whole entry, looked up): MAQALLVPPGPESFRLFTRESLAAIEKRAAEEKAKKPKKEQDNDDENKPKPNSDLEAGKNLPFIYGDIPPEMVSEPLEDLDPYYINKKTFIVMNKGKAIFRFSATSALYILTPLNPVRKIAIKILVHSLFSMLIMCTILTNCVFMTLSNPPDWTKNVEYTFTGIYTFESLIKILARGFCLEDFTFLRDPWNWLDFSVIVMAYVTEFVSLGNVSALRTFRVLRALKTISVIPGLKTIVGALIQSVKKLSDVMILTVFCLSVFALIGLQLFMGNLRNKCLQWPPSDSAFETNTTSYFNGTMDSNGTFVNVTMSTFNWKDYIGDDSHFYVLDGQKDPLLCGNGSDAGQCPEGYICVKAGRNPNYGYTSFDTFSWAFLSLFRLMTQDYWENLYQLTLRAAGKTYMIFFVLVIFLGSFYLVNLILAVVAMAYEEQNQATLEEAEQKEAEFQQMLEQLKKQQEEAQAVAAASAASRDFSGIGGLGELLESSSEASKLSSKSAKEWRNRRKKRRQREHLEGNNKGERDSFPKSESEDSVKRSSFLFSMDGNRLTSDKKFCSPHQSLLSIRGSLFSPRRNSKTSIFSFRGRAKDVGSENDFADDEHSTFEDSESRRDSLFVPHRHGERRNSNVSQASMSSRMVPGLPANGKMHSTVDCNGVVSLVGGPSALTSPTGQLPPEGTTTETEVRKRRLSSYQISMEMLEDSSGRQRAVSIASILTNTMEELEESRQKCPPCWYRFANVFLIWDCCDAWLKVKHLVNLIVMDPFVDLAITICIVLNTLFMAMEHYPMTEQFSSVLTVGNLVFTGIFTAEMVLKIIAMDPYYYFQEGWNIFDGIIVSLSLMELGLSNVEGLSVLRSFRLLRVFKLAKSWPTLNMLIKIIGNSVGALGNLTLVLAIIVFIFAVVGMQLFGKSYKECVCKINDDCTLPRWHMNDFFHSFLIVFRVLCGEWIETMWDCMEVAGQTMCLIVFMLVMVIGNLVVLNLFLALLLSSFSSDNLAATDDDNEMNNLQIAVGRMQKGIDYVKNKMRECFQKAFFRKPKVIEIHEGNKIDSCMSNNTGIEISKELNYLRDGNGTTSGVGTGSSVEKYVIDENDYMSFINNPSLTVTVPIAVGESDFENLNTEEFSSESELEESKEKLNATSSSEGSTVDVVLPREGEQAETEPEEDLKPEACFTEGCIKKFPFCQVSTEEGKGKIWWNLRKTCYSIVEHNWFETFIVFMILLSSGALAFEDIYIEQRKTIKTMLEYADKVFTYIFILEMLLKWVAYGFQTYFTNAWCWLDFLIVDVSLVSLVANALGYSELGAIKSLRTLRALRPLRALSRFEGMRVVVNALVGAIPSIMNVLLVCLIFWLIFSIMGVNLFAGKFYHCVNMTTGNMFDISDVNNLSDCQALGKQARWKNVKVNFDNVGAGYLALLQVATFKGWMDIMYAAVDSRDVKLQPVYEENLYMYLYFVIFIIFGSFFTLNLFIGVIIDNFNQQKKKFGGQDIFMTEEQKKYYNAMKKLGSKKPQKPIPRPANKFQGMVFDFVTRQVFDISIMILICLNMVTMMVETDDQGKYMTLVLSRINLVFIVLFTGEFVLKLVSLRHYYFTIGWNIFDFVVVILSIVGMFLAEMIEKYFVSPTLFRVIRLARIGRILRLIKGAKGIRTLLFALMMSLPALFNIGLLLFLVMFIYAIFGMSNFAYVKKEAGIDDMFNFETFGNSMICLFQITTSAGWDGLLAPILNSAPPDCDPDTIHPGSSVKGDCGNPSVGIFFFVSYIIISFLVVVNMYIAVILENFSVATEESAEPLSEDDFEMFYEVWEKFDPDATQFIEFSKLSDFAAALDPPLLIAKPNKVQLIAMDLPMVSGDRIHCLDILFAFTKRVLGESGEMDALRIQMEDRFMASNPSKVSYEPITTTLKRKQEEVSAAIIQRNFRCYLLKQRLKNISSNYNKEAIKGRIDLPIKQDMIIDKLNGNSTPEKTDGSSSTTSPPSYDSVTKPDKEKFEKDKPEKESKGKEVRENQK

Where two headings read alike, the source gives them in different places. Positions of bridges follow the written chain, without caps; N, C: chain ends. Residues, ends and D or L forms follow the SMILES beside them.

Sequence of hNav1.5 (Q14524 whole entry, looked up): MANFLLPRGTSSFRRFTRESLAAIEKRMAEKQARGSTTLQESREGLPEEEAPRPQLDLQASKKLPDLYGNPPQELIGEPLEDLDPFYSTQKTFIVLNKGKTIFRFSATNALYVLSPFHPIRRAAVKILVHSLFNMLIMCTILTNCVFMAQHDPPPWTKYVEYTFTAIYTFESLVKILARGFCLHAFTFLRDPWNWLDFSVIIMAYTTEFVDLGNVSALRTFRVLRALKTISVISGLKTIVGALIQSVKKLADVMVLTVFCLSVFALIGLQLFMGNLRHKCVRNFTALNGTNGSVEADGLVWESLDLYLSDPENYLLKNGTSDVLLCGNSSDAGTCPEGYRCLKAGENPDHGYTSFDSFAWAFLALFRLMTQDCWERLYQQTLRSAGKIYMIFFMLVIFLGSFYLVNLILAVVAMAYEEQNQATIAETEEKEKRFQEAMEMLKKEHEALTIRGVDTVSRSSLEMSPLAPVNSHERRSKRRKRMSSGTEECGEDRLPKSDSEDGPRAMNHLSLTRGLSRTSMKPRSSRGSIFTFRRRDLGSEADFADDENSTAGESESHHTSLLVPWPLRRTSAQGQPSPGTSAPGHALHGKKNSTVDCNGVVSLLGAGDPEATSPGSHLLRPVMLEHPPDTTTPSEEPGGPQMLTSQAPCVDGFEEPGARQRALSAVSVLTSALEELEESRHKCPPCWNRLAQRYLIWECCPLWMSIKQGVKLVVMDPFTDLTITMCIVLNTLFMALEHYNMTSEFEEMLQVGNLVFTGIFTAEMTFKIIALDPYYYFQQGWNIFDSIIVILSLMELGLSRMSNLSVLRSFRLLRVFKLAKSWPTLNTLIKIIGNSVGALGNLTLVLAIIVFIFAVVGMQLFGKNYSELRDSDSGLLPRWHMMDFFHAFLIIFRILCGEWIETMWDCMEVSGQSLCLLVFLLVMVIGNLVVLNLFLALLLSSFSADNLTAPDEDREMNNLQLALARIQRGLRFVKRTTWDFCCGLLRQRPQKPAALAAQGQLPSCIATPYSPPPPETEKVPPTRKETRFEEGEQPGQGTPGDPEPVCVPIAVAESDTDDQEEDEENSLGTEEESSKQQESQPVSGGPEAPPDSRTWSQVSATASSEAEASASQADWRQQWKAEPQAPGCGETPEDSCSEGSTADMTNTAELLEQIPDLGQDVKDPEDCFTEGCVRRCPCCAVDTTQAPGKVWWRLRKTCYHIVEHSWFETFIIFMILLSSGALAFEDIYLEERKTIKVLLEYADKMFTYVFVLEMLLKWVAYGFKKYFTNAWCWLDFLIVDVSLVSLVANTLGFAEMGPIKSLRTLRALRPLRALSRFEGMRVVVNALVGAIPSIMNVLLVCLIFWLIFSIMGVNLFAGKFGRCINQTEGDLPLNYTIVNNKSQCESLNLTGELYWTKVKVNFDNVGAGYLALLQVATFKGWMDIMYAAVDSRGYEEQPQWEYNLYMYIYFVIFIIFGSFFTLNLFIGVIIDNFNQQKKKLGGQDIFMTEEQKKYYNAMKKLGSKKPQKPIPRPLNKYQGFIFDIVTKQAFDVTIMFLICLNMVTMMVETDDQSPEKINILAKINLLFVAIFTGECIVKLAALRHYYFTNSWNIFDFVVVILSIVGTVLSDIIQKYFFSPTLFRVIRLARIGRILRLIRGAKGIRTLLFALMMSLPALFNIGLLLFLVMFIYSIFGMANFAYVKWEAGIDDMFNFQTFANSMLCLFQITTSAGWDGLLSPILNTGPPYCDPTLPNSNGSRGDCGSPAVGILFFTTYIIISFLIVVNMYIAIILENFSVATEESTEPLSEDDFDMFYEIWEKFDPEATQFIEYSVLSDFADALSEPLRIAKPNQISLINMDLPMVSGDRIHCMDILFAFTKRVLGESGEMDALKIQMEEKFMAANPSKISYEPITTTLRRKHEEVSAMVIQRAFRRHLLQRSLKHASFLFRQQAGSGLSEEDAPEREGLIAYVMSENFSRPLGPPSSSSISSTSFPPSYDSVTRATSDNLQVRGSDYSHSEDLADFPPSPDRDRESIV

In the case of `CC[C@H](C)[C@@H]1NC(=O)[C@@H]2CSSC[C@@H]3NC(=O)[C@H](C(C)C)NC(=O)[C@H](CC(C)C)NC(=O)[C@H](CCCNC(=N)N)NC(=O)[C@@H]4CCCN4C(=O)[C@H](CCCNC(=N)N)NC(=O)[C@H](CSSC[C@H](NC(=O)[C@@H](N)CC(=O)O)C(=O)N[C@@H](CC(C)C)C(=O)NCC(=O)N[C@@H](Cc4ccccc4)C(=O)N[C@@H](CCSC)C(=O)N[C@@H](CCCNC(=N)N)C(=O)N[C@@H](CCCCN)C(=O)N2)NC(=O)[C@H](CSSC[C@@H](C(=O)N[C@@H](CCCCN)C(=O)N[C@@H](Cc2ccc(O)cc2)C(=O)N[C@H](C(=O)N[C@@H](Cc2ccccc2)C(N)=O)C(C)C)NC(=O)[C@H](Cc2c[nH]c4ccccc24)NC(=O)[C@H](CCCCN)NC(=O)[C@H](Cc2cnc[nH]2)NC(=O)[C@H]([C@@H](C)O)NC(=O)[C@H](CCCNC(=N)N)NC(=O)[C@H](CO)NC3=O)NC(=O)[C@H](CCCCN)NC(=O)[C@H](CC(=O)O)NC(=O)[C@H](CC(N)=O)NC(=O)[C@H](CC(=O)O)NC(=O)[C@@H]2CCCN2C1=O` [compound 69] (H-DCLGFMRKCIPDNDKCCRPRLVCSRTHKWCKYVF-NH2; disulfide 2-17, 9-23, 16-30), the IC50 in experiment [1] (Use) is 14.9 µM; in experiment [2] (Use) it was 0.08 µM.

As for `CC[C@H](C)[C@@H]1NC(=O)[C@@H]2CSSC[C@@H]3NC(=O)[C@H](C(C)C)NC(=O)[C@H](CC(C)C)NC(=O)[C@H](CC(N)=O)NC(=O)[C@@H]4CCCN4C(=O)[C@H](CCCNC(=N)N)NC(=O)[C@H](CSSC[C@H](NC(=O)[C@@H](N)CC(=O)O)C(=O)N[C@@H](CC(C)C)C(=O)NCC(=O)N[C@@H](Cc4ccccc4)C(=O)N[C@@H](CCSC)C(=O)N[C@@H](CCCNC(=N)N)C(=O)N[C@@H](CCCCN)C(=O)N2)NC(=O)[C@H](CSSC[C@@H](C(=O)N[C@@H](CCCCN)C(=O)N[C@@H](Cc2ccc(O)cc2)C(=O)N[C@@H](CCCNC(=N)N)C(=O)N[C@@H](Cc2ccccc2)C(N)=O)NC(=O)[C@H](Cc2c[nH]c4ccccc24)NC(=O)[C@H](CCCCN)NC(=O)[C@H](Cc2cnc[nH]2)NC(=O)[C@H]([C@@H](C)O)NC(=O)[C@H](CCCNC(=N)N)NC(=O)[C@H](CO)NC3=O)NC(=O)[C@H](CCCCN)NC(=O)[C@H](CC(=O)O)NC(=O)[C@H](CC(N)=O)NC(=O)[C@H](CC(=O)O)NC(=O)[C@@H]2CCCN2C1=O` [compound 74] (H-DCLGFMRKCIPDNDKCCRPNLVCSRTHKWCKYRF-NH2; disulfide 2-17, 9-23, 16-30), the IC50 in experiment [1] (Table 26, use, […]) is 9.55 µM; in experiment [2] (Table 26, use, […]), 0.05 µM.

Turning to `CC[C@H](C)[C@@H]1NC(=O)[C@@H]2CSSC[C@@H]3NC(=O)[C@H](CCC(=O)O)NC(=O)[C@H](CC(C)C)NC(=O)[C@H](CC(N)=O)NC(=O)[C@@H]4CCCN4C(=O)[C@H](CCCNC(=N)N)NC(=O)[C@H](CSSC[C@H](NC(=O)[C@@H](N)CC(=O)O)C(=O)N[C@@H](CC(C)C)C(=O)NCC(=O)N[C@@H](Cc4ccccc4)C(=O)N[C@@H](CCSC)C(=O)N[C@@H](CCCNC(=N)N)C(=O)N[C@@H](CCCCN)C(=O)N2)NC(=O)[C@H](CSSC[C@@H](C(=O)N[C@@H](CCCCN)C(=O)N[C@@H](Cc2ccc(O)cc2)C(=O)N[C@H](C(=O)N[C@@H](Cc2ccccc2)C(N)=O)C(C)C)NC(=O)[C@H](Cc2c[nH]c4ccccc24)NC(=O)[C@H](CCCCN)NC(=O)[C@H](Cc2cnc[nH]2)NC(=O)[C@H]([C@@H](C)O)NC(=O)[C@H](CCCNC(=N)N)NC(=O)[C@H](CO)NC3=O)NC(=O)[C@H](CCCCN)NC(=O)[C@H](CC(=O)O)NC(=O)[C@H](CC(N)=O)NC(=O)[C@H](CC(=O)O)NC(=O)[C@@H]2CCCN2C1=O` [compound 102] (H-DCLGFMRKCIPDNDKCCRPNLECSRTHKWCKYVF-NH2; disulfide 2-17, 9-23, 16-30), the IC50 in experiment [1] (Use) came out at 20.8 µM; in experiment [2] (Use) it was 2.14 µM.

In the case of `CC[C@H](C)[C@@H]1NC(=O)[C@@H]2CSSC[C@@H]3NC(=O)[C@H](C(C)C)NC(=O)[C@H](CC(C)C)NC(=O)[C@H](CC(N)=O)NC(=O)[C@@H]4CCCN4C(=O)[C@H](CCCNC(=N)N)NC(=O)[C@H](CSSC[C@H](NC(=O)[C@@H](N)CC(=O)O)C(=O)N[C@@H](CC(C)C)C(=O)NCC(=O)N[C@@H](Cc4ccccc4)C(=O)N[C@@H](CCSC)C(=O)N[C@@H](CCCNC(=N)N)C(=O)N[C@@H](CCCCN)C(=O)N2)NC(=O)[C@H](CSSC[C@@H](C(=O)N[C@@H](CCCCN)C(=O)N[C@@H](Cc2ccc(O)cc2)C(=O)N[C@H](C(=O)N[C@@H](Cc2ccccc2)C(=O)O)C(C)C)NC(=O)[C@H](Cc2c[nH]c4ccccc24)NC(=O)[C@H](CCCCN)NC(=O)[C@H](Cc2cnc[nH]2)NC(=O)[C@H]([C@@H](C)O)NC(=O)[C@H](CCCNC(=N)N)NC(=O)[C@H](CO)NC3=O)NC(=O)[C@H](CCCCN)NC(=O)[C@H](CC(=O)O)NC(=O)[C@H](CC(N)=O)NC(=O)[C@H](CC(=O)O)NC(=O)[C@@H]2CCCN2C1=O` [compound 107], the IC50 worked out at 9.44 µM in experiment [1] (use-dependent, […]) and 0.54 µM in experiment [2] (use-dependent, […]).

On to `CC[C@H](C)[C@@H]1NC(=O)[C@@H]2CSSC[C@@H]3NC(=O)[C@H](C(C)C)NC(=O)[C@H](CC(C)C)NC(=O)[C@H](CC(N)=O)NC(=O)[C@@H]4CCCN4C(=O)[C@H](CCCNC(=N)N)NC(=O)[C@H](CSSC[C@H](NC(=O)[C@@H](N)CC(=O)O)C(=O)N[C@@H](CC(C)C)C(=O)NCC(=O)N[C@@H](Cc4ccccc4)C(=O)N[C@@H](CCSC)C(=O)N[C@@H](CCCNC(=N)N)C(=O)N[C@@H](CCCCN)C(=O)N2)NC(=O)[C@H](CSSC[C@@H](C(=O)N[C@@H](CCCCN)C(=O)N[C@@H](Cc2ccc(O)cc2)C(=O)N[C@H](C(=O)N[C@@H](Cc2ccccc2)C(N)=O)C(C)C)NC(=O)[C@H](Cc2ccc(O)cc2)NC(=O)[C@H](CCCCN)NC(=O)[C@H](Cc2c[nH]cn2)NC(=O)[C@H]([C@@H](C)O)NC(=O)[C@H](CCCNC(=N)N)NC(=O)[C@H](CO)NC3=O)NC(=O)[C@H](CCCCN)NC(=O)[C@H](CC(=O)O)NC(=O)[C@H](CC(N)=O)NC(=O)[C@H](CC(=O)O)NC(=O)[C@@H]2CCCN2C1=O` [compound 113] (H-DCLGFMRKCIPDNDKCCRPNLVCSRTHKYCKYVF-NH2; disulfide 2-17, 9-23, 16-30), for which the IC50 in experiment [1] (Table 24, use, […]) came to 9.49 µM; in experiment [2] (Table 24, use, […]), 4.03 µM.

Take `CC[C@H](C)[C@@H]1NC(=O)[C@@H]2CSSC[C@@H]3NC(=O)[C@H](C(C)C)NC(=O)[C@H](CC(C)C)NC(=O)[C@H](CC(N)=O)NC(=O)[C@@H]4CCCN4C(=O)[C@H](CCCNC(=N)N)NC(=O)[C@H](CSSC[C@H](NC(=O)[C@@H](N)CC(=O)O)C(=O)N[C@@H](CC(C)C)C(=O)NCC(=O)N[C@@H](Cc4ccccc4)C(=O)N[C@@H](CCSC)C(=O)N[C@@H](CCCNC(=N)N)C(=O)N[C@@H](CCCCN)C(=O)N2)NC(=O)[C@H](CSSC[C@@H](C(=O)N[C@@H](CCCCN)C(=O)N[C@@H](Cc2ccc(O)cc2)C(=O)N[C@H](C(=O)N[C@@H](Cc2ccccc2)C(N)=O)C(C)C)NC(=O)[C@H](Cc2c[nH]c4ccccc24)NC(=O)[C@H](CCCCN)NC(=O)[C@H](Cc2cnc[nH]2)NC(=O)[C@H]([C@@H](C)O)NC(=O)[C@H](CCCNC(=N)N)NC(=O)[C@H](C)NC3=O)NC(=O)[C@H](CCCCN)NC(=O)[C@H](CC(=O)O)NC(=O)[C@H](CC(N)=O)NC(=O)[C@H](CC(=O)O)NC(=O)[C@@H]2CCCN2C1=O` [compound 142] (H-DCLGFMRKCIPDNDKCCRPNLVCARTHKWCKYVF-NH2; disulfide 2-17, 9-23, 16-30): the IC50 in experiment [1] (Use) was found to be 8.2 µM; in experiment [2] (Use), 0.25 µM.
